Test results published in publication PMC10517971, “An inverse agonist of orphan receptor GPR61 acts by a G protein-competitive allosteric mechanism” (Nature Communications, 2023).
Values joined by “and” are separate entries in the source; they are usually repeats but may differ in a detail not shown here. Equal entries are not always repeated. Where two headings read alike, the source gives them in different places.

What was measured:
Human PDE4D3 = Human PDE4D3 (Homo sapiens, UniProt Q08499); experiment: Phosphodiesterase Assay (SPA); assay type: biochemical
Experimental: (§1) 45 37 °C for 30 min (DAT) or 60 min (NET and SER T). The plate is transferred to the FLIPR Tetra®
(§2) 46 instrument and the fluorescence of each well was measured (Ex 470- 495 […]).
(§3) 47 The level of fluores cenc e measured dire ctly relates to the level of uptake of the dye labelled amine,
(§4) 48 with a reduction in levels being related to an inhibition of the respective transporter.
(§5) 49 Phosphodiesterase Assays
(§6) 50 The phosphodiesteras e (P DE) assays m easure the conversion of 3’, 5 ’ -[3H ] cAMP to 5’-[3H] AMP
(§7) 51 (for PDE 3A1 and 4D3) or 3’, 5’-[3H] cGMP to 5’-[3H] GMP (for 5A1) by the relevant PDE
(§8) 52 enzyme subtype. Yttrium silicate (YSi) scintillation proximity (SPA) beads bind selectively to 5’-
(§9) 53 [3H] AMP or 5’-[3H] GMP, with the magnitude of radioactive counts being directly related to
(§10) 54 PDE enzymatic activity. The ass ay was performed in white walled op aque b ottom 384-well plates.
(§11) 55 Test compound (1 µL) in dimethyl sulfoxide was added to each well. Enzyme solution was then
(§12) 56 added to each well in buffer (in mM: Trizma, 50 (pH7.5); MgCl2, 1.3 mM) containing Brij 35
(§13) 57 (0.01% (v/v)). Subsequently, 20 µL of 3’,5’-[3H] cGMP (125 nM) or 20 µL of 3’,5’-[3H] cAMP
(§14) 58 (50 nM) was added to each well to start the reaction and the plate was incubated for 30 min at
(§15) 59 25 °C. The reaction was terminated by the addition of 20 µL of PDE YSi SPA beads (Perkin Elmer,
(§16) 60 Waltham, MA). Followin g an additional 8 h incubation period the plates were read on a MicroBeta
(§17) 61 radioactive plat e counter (Perkin Elmer, Waltham, MA, USA) to determine radioactive counts per
(§18) 63 Bromodomain-Containing Protein 4 (BRD4) Binding Assay
(§19) 64 The BRD4 fluorescent polarization binding assay uses purified His-tagged BRD4 protein and its
(§20) 65 interaction with a Cy5 labelled small molecule probe that binds to the BRD4 site involved in the
(§21) 66 interaction with tetra-acetylated histone H4 peptide. In brief, the assay is performed in low volume

Human PDE5A1 = Human PDE5A1 (Homo sapiens, UniProt O76074); experiment: Phosphodiesterase Assay (SPA); assay type: biochemical
Experimental: as §1, §2, §3, §4, §5, §6, §7, §8, §9, §10, §11, §12, §13, §14, §15, §16, §17, §18, §19, §20, §21

Human PDE3A1 = Human PDE3A1 (Homo sapiens, UniProt Q14432); experiment: Phosphodiesterase Assay (SPA); assay type: biochemical
Experimental: as §1, §2, §3, §4, §5, §6, §7, §8, §9, §10, §11, §12, §13, §14, §15, §16, §17, §18, §19, §20, §21

human GPR61 N137A = biological target: T1, human GPR61 N137A (Homo sapiens, UniProt Q9BZJ8, N137A); experiment: Functional cAMP assay (HTRF), transiently transfected CHO-K1 cells, GPR61 N137A mutant; assay type: cell-based; parameters: key to cAMP response (Figure 3e source data): nM cAMP per well, from standard curve; settings: for IC50: Fig. 3e table
T1 construct: expressed in transfected cells; host or cells: CHO-K1, transient (Fugene6)
Description: (§22) The human GPR61 (reference sequence NM_031936.4) cDNA was synthesized and subcloned into pcDNA5/FRT/TO (Thermo Fisher, Pittsburgh, PA). The pcDNA5/FRT/TO/ human GPR61 plasmid was then transfected into the Flp-In™-CHO Cell Line (Thermo Fisher, Pittsburgh, PA) and a doxycycline-inducible clonal cell line was selected (CHO TREx hGPR61 WT). Sequences encoding untagged and HiBit/hemagglutinin (HA)-tagged versions of the wild-type human GPR61 were synthesized and cloned into pcDNA3.1. The HiBit ([…]) and HA ([…]) tags were sequentially included after the N-terminal initiator methionine. Four single amino acid substitutions (N137A, R140A, V288A, N345A) were then introduced in the untagged and tagged human GPR61 constructs using site-specific mutagenesis. The nucleotide sequences of all receptor constructs were confirmed by automated DNA sequencing.
Parental CHO-K1 cells were maintained at 37 °C in a humidified environment (5% CO2) and grown in Dulbecco’s Modified Eagle Medium (DMEM) F-12 media (Gibco, 11320033) supplemented with 10% FBS, 1% Glutamax (Gibco, 35050061) and 100units/ml penicillin and streptomycin (Gibco, 15140122. Cells were dissociated using a cell dissociation solution (Gibco, 13151-014), counted, and resuspended in complete culture media without antibiotics. Cells were then transiently transfected using Fugene6 (Promega) in a 384-well plate format (Corning, 3570). For each well, 7500 cells were transfected with 5 ng of receptor plasmid, 20 ng of carrier DNA (Promega, PAE4881) and 0.075 μl Fugene6 in a final volume of 25 μl. Fugene6 and DNA were separately diluted in Optimem media (Gibco, 31985070) (1.25 μl final volume each). Fugene6 and DNA solutions were then combined and incubated for 15 min at room temperature. The cell containing solution (22.5 μl) was then added and transfection reactions were mixed and transferred to the assay plate. Following 24 h incubation at 37 °C, wells were rinsed once and 25 μl of HiBit assay buffer (Phenol-red free DMEM F-12 media containing 2% FBS) was added per well. Surface and total receptor expression was measured separately by adding 25 μl per well of the extracellular (Promega, PRN2421) and lytic (Promega, PRN3040) assay solutions, respectively. Plates were incubated for 10 min at room temperature on a shaker and luciferase activity was measured using an EnVision plate reader (Perkin Elmer, Chicago, IL). Expression was normalized as percent of the wild-type receptor signal. Statistical comparisons of expression levels observed with WT versus GPR61 mutants were made by one-way analysis of variance with Dunnett’s post hoc test.
A homogeneous Time-Resolved Fluorescence (HTRF) assay (Perkin Elmer, Dynamic2 kit #) was used to assess receptor basal and inverse agonist activity at human GPR61, GPR62, and GPR101. For routine inverse agonist screening frozen CHO TREx human GPR61, GPR62 and GPR101 cells were used. Cells were thawed, resuspended in complete assay media (DMEM F-12, 10% HI FBS, 100 μg/mL Normocin, 700 μg/mL Hygromycin B and 15 μg/mL Blasticidin) containing 1ug/ml doxycycline, plated in white 384 well plates (Corning, 3570) at a density of 750 cells/well (25 μl/ well) and cultured at 37 °C in an incubator overnight. For studies assessing basal and inverse agonist activity at human GPR61 mutants, CHO-K1 cells were transiently transfected using Fugene6, plated in white 384 well plates (7500 cells/well) and grown overnight at 37 °C, as described for receptor expression studies. […]

Human PDE8B = Human PDE8B (Homo sapiens, UniProt O95263); experiment: Phosphodiesterase Assay (SPA); assay type: biochemical
human GPR61 N345A = biological target: T2, human GPR61 N345A (Homo sapiens, UniProt Q9BZJ8, N345A); experiment: Functional cAMP assay (HTRF), transiently transfected CHO-K1 cells, GPR61 N345A mutant; assay type: cell-based; settings: at up to 10 μM concentration
T2 construct: expressed in transfected cells; host or cells: CHO-K1, transient (Fugene6)
Description: as §22, with “Four single amino acid substitutions (N137A, R140A, V288A, N345A) were then introduced in the untagged and tagged human GPR61 constructs using site-specific mutagenesis. The nucleotide sequences of all receptor constructs were confirmed by automated DNA sequencing.” left out
Parental CHO-K1 cells were maintained at 37 °C in a humidified environment (5% CO2) and grown in Dulbecco’s Modified Eagle Medium (DMEM) F-12 media (Gibco, 11320033) supplemented with 10% FBS, 1% Glutamax (Gibco, 35050061) and 100units/ml penicillin and streptomycin (Gibco, 15140122. Cells were dissociated using a cell dissociation solution (Gibco, 13151-014), counted, and resuspended in complete culture media without antibiotics. Cells were then transiently transfected using Fugene6 (Promega) in a 384-well plate format (Corning, 3570). For each well, 7500 cells were transfected with 5 ng of receptor plasmid, 20 ng of carrier DNA (Promega, PAE4881) and 0.075 μl Fugene6 in a final volume of 25 μl. […]

T1 sequence (Q9BZJ8 whole entry N137A): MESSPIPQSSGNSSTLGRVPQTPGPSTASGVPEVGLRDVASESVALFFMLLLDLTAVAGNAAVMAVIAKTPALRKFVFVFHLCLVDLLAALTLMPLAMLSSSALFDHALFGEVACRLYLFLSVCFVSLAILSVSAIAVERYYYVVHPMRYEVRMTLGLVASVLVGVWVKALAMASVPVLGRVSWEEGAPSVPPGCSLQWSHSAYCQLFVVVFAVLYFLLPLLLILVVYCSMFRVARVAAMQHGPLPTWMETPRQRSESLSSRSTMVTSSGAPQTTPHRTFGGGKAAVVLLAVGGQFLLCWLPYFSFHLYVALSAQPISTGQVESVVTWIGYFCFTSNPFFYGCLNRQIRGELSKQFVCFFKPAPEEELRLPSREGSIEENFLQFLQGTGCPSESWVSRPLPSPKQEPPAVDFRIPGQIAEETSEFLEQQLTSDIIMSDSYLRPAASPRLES
T2 sequence (Q9BZJ8 whole entry N345A): as the sequence (Q9BZJ8 whole entry N137A) above, with A137N, N345A counted along it
Chain of Human PDE4D3 (Q08499 1-673 isoform Q08499-2): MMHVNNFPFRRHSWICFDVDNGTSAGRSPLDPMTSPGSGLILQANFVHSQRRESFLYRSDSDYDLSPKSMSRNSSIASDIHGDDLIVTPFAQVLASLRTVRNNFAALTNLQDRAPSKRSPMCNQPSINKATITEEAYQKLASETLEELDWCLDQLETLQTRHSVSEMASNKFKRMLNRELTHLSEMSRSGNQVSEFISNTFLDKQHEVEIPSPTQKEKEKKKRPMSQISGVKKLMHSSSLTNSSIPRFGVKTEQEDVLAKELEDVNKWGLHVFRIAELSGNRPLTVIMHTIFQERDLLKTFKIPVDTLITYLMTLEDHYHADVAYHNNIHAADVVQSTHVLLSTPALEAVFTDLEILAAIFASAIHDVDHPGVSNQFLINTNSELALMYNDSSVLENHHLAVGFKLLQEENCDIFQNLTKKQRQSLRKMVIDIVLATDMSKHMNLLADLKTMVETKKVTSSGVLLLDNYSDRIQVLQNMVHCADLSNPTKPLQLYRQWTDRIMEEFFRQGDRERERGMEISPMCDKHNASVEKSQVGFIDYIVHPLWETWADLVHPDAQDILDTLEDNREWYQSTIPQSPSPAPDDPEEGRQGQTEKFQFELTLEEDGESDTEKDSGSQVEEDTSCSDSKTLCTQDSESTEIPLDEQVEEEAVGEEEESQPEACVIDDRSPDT
Chain of Human PDE8B (O95263 whole entry): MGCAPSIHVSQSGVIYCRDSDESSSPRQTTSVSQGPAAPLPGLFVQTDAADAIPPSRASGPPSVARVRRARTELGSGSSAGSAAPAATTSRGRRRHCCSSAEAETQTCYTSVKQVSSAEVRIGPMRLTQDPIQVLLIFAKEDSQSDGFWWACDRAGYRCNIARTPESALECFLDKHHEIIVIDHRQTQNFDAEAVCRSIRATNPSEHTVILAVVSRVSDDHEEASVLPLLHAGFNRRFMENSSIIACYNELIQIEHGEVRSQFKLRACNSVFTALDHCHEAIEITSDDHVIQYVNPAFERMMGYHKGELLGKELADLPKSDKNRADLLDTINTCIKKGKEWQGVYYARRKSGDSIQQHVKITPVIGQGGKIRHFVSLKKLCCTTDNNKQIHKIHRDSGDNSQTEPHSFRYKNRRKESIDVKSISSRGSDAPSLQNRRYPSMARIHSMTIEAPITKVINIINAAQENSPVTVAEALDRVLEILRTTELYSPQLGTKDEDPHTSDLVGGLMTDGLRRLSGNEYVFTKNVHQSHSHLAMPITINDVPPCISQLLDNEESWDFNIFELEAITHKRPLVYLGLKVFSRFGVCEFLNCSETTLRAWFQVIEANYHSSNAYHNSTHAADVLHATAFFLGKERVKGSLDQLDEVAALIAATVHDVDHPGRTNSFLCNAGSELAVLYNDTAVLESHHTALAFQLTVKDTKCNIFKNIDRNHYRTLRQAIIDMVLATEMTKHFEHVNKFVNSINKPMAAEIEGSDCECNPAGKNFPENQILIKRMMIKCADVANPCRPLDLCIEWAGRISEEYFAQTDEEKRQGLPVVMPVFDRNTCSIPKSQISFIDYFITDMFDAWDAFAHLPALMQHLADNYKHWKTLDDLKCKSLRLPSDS
Chain of Human PDE3A1 (Q14432 whole entry): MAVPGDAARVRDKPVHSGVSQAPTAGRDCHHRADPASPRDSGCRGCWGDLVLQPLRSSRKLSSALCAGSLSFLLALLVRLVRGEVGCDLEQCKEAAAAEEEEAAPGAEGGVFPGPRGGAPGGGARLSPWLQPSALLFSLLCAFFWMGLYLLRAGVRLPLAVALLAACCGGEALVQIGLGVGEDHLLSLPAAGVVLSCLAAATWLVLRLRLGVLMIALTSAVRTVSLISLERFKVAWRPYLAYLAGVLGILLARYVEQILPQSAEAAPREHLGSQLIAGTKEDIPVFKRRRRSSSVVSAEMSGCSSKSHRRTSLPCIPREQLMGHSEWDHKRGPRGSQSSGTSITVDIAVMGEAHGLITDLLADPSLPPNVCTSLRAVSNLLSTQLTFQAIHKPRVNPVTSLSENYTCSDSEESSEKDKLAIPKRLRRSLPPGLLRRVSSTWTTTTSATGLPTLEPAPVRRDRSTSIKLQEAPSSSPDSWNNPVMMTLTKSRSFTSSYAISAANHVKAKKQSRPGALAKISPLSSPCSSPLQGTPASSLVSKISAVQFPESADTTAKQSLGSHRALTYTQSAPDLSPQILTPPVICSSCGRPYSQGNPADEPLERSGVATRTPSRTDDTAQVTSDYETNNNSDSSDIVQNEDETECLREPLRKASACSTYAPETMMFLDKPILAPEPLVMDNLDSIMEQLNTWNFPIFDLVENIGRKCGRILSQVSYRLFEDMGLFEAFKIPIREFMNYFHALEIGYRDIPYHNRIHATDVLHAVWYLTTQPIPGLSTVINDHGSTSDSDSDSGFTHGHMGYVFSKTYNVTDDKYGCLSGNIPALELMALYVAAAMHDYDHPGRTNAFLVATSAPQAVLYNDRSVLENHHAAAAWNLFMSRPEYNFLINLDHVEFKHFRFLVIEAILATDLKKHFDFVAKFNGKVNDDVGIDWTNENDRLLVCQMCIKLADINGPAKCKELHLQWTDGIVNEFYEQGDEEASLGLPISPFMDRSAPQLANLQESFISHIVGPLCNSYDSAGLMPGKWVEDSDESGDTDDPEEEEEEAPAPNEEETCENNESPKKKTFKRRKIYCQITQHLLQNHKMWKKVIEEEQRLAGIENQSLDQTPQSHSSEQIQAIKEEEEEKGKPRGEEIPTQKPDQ

CCOc1cc(C)nc(N(CCOC)S(=O)(=O)c2ccc(NCc3c(F)cncc3F)nc2OC)n1 [Compound 1]
IC50 (Human PDE4D3): > 35 µM
IC50 (Human PDE5A1): 155 µM
IC50 (Human PDE3A1): 18.4 µM
reduction of potency relative to wild-type in the cAMP assay (human GPR61 N137A; Asn137 to Ala mutation vs wild-type): about 100 fold
IC50 (human GPR61 N137A; HiBit-tagged, read-out: GPR61 cAMP IC50 (95% CI), N137A HiBit-tagged): 3.34 µM
IC50 (human GPR61 N137A; untagged, read-out: GPR61 cAMP IC50 (95% CI), N137A Untagged): 1.73 µM
cAMP response (Figure 3e source data) (human GPR61 N137A; HiBit N137A, concentration -6.5): 4.93 and 5.62 and 3.82 and 3.87 and 6.18 and 6.86
cAMP response (Figure 3e source data) (human GPR61 N137A; HiBit N137A, concentration -7.5): 4.76 and 5.49 and 3.72 and 4.04 and 6.75 and 6.55
cAMP response (Figure 3e source data) (human GPR61 N137A; HiBit N137A, concentration -8): 6.63 and 6.17 and 3.76 and 4.15 and 6.97 and 7.08
cAMP response (Figure 3e source data) (human GPR61 N137A; HiBit N137A, concentration -9): 2.87 and 4.76 and 3.00 and 3.25 and 3.54
cAMP response (Figure 3e source data) (human GPR61 N137A; Untagged N137A, concentration -6): 4.52 and 4.56 and 3.59 and 3.47 and 5.45 and 5.98
IC50 (Human PDE8B): 9.07 µM
sensitivity of the receptor to the compound in the cAMP assay (human GPR61 N345A): no sensitivity
